Laboratory results published in US10336748B2, “Methyoxy-substituted pyrrolopyridine modulators of RORC2 and methods of use thereof” (Pfizer Inc., priority 2015, dated 2019).

Columns and labels:
[1] = molecular target: T1, RORC2 ligand binding domain (6-His-RORC2 LBD) (Homo sapiens, UniProt P51449); assay: Co-activator recruitment by TR-FRET; type: biochemical; conditions: 6.3 nM RORC2 LBD, 200 nM SRC1-2 coactivator peptide, 3 hr room temperature
T1 construct: made in house; host or cells: E. coli
T1 sequence (P51449 269-508 limits assumed): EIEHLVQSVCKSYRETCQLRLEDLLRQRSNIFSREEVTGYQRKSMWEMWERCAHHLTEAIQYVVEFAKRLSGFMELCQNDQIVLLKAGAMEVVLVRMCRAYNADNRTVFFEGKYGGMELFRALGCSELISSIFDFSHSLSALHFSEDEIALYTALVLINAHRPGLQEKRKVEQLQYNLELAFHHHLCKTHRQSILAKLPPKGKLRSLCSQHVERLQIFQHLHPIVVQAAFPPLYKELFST
From the text: The activity of compound of the invention can be determined by a co-activator recruitment by TR-FRET (time-resolved fluorescence resonance energy transfer) assay. In general, the assay is based on the interaction between N-terminally Six-Histidine-tagged-RORC2 ligand binding domain (6-His-RORC2 LBD), expressed in E. coli and purified by affinity chromatography, and biotin-coactivator peptide SRC1-2 (biotin-aminohexanoic acid-[…]-NH2; SEQ ID NO: 1) containing the LXXLL consensus domain which is responsible for receptor binding. This interaction is detected by addition of Europium labeled-anti-His antibody (Ex. 337 nm, Em. 620 nm, which binds to 6His) and Streptavidin-APC (Ex. 620 nm, Em. 665 nm, which binds to biotin). When receptor and coactivator are bound to each other, upon shining light at 337 nm on the sample, the Europium emits fluorescence that excites APC due to close proximity (FRET) and this signal is measured at 665 nm. Due to the long lasting fluorescence emission of Europium, the non-specific, short-lived fluorescence is time-resolved (TR) from the fluorescence of interest. Inhibitors of the interaction of receptor and coactivator peptide are detected by a decrease in TR-FRET signal.
Specifically, in one embodiment the aforementioned assay was performed as outlined below. The assay was carried out in black polystyrene. 384-well plates in a total assay volume of 50.5 μL. The assay buffer contained 50 mM TRIS-HCL pH 7.5, 1 mM NaCl, 2 mM MgCl2, 0.5 mg/mL bovine serum albumin, and 5 mM dithiothreitol. The final concentration of reagents was 6.3 nM RORC2 LBD, 200 nM SRC1-2, 50 nM streptavidin APC, 1 nM Europium-labeled anti-His antibody, and varying concentrations of compounds such that final concentration of DMSO is 1% (v/v). The assay steps were: (1) dispensing […] compound at 100× final concentration in DMSO (test wells) or DMSO only (control wells for no inhibition); and (2) dispensing 50 μL mixture of the other assay components including receptor (test wells) or excluding receptor (control wells for maximal inhibition).
Assay mixtures were incubated are room temperature for 3 hr and read in EnVision 2100 Multilabel Reader (PerkinElmer Life Sciences) at Excitation Filter 320, Emission Europium Filter 615, Emission APC Filter 665, Dichroic Mirror D400/D630.
TR-FRET signal was determined by calculating the ratio of 665 nm by 615 nm and […] values of compounds of the invention (Table 1) were determined by the non-linear regression analysis of dose response curves.

human Th17 cells = assay: IL-17 production from human Th17 cells; type: cell-based; conditions: 144 h; IL-17A in supernatant by ELISA (MSD) after 6 days, human CD4+ T cells, anti-CD3 + anti-CD28 + cytokine cocktail
Method: The activity of compound of the invention can be also be determined by an IL-17 production from human Th17 cells assay. In general, this assay measures blockade of IL-17 production, the signature cytokine of T helper 17 (Th17) cells, by compounds. Purified human CD4+ T cells are stimulated with anti-CD3+anti-CD28 and incubated with a cytokine cocktail that induce their differentiation into Th17 in the absence or presence of various concentrations of compound. After 6 days, IL-17A concentration is measured in the cell culture supernatant with an ELISA kit (MSD).
Preparation of human CD4+ T cells. CD4+ T cells were purified from buffy coats from healthy donors (obtained from Massachusetts General Hospital) by negative selection the following procedure: Mixing 25 mL of blood with 1 mL of Rosette Sep CD4+ T cell enrichment cocktail (StemCell Technologies) followed by application of a layer of 14 mL Ficoll Paque Plus (Amersham GE Healthcare) and subsequent centrifugation at 1200 g for 20 min at room temperature. The Ficoll layer was then harvested and washed with phosphate saline buffer containing 2% (v/v) fetal bovine serum and cells were resuspended with RPMI medium containing 10% (v/v) fetal bovine serum and 10% (v/v) DMSO, frozen and kept in LN2 until used.
On the first day of the assay, a vial containing 10^7 CD4+ T cells is thawed rapidly in 37° C. water bath, immediately transferred into 20 mL X-Vivo 15 medium (Lonza), is spun for 6 min at 300×g, the supernatant is discarded, and the resulting pellet is re-suspended at 10^6 cells/mL in […] fresh X-Vivo 15 medium, followed by storage overnight in a tissue culture vessel in a humidified chamber at 37° C. and 5% CO2. Serial dilutions of compounds of the invention are prepared at 10× final concentration in X-Vivo15 medium containing 3% (v/v) DMSO.
On the second day of the assay, a 384-well tissue culture plate was coated with 10 μg/mL anti-hCD3 (eBioscience) at 50 μL/well. After 2 hr at 37° C., the supernatant is discarded and the coated plates are kept in a sterile tissue culture hood.
Cytokine plus anti-CD28 cocktail is prepared by mixing 25 ng/mL hIL-6 (Peprotech), 5 ng/mL hTGFbeta1 (Peprotech), 12.5 ng/mL IL-1beta (Peprotech), 25 ng/mL hIL-21, 25 ng/mL hIL-23 (R&D Systems), and 1 ug/mL anti-hCD28 (eBioscience) in X-Vivo 15 medium. The cytokine plus anti-CD28 cocktail with CD4+ cells is prepared such that the cocktail is diluted 10-fold and cell density is 0.22×10^6/mL. The mixture is incubated 1 hr at 37° C.
90 μL (20,000 cells) dispensed per well in the anti-hCD3 coated plate prepared as noted above.
10 μL 10× compound is added per well (final DMSO=0.3%) from the compound plate that was previously prepared, followed by 6 days of incubation in a tissue culture vessel in a humidified chamber at 37° C. and 5% CO2.
On day six of the assay, production of IL-17A in 10 μL of the supernatant is determined by sandwich ELISA using 384w hIL17 MSD plates following the manufacturer's protocol. Measurement is carried out in a Sector Imager 6000 by the same manufacturer. Signal units from the instrument are converted to pg/mL using a calibration curve with known amounts of IL-17A. IC50 values of test compounds (Table 2) are determined by the non-linear regression analysis of dose response curves.

SMILES	IC50 [1] [nM]	IC50 (human Th17 cells) [nM]
COc1c(NC(=O)c2cccc(C#N)c2)cnc2c1c([C@@H]1CCN(C(=O)C3CCCC3)C(C)(C)C1)cn2C [Example 31, (R)-3-cyano-N-(3-(1-(cyclopentanecarbonyl)-2,2-dimethylpiperidin-4-yl)-4-methoxy-1-methyl-1H-pyrrolo[2,3-b]pyridin-5-yl)benzamide]	5.7	7.2
COc1ccc(C(=O)Nc2cnc3c(c([C@@H]4CCN(C(=O)C5CCCCC5)C(C)(C)C4)cn3C)c2OC)cc1C#N [Example 32, (R)-3-cyano-N-(3-(1-(cyclohexanecarbonyl)-2,2-dimethylpiperidin-4-yl)-4-methoxy-1-methyl-1H-pyrrolo[2,3-b]pyridin-5-yl)-4-methoxybenzamide]	5.8	11
COc1c(NC(=O)c2cccc(C#N)c2)cnc2c1c([C@@H]1CCN(C(=O)C3CC(C)(C)C3)C(C)(C)C1)cn2C [Example 33, (R)-3-cyano-N-(3-(1-(3,3-dimethylcyclobutane-1-carbonyl)-2,2-dimethylpiperidin-4-yl)-4-methoxy-1-methyl-1H-pyrrolo[2,3-b]pyridin-5-yl)benzamide]	8.5	15.6
COc1c(NC(=O)c2cccc(C#N)c2)cnc2c1c([C@@H]1CCN(C(=O)[C@@H](C)C(C)(C)C)C(C)(C)C1)cn2C [Example 34, 3-cyano-N-(3-((R)-2,2-dimethyl-1-((S)-2,3,3-trimethylbutanoyl)piperidin-4-yl)-4-methoxy-1-methyl-1H-pyrrolo[2,3-b]pyridin-5-yl)benzamide]	9.4	23.1
COc1c(NC(=O)c2ccc(SC)c(C#N)c2)cnc2c1c(C1CCN(C(=O)[C@H](C)C(C)(C)C)CC1)cn2C [Example 35, (R)-3-cyano-N-(4-methoxy-1-methyl-3-(1-(2,3,3-trimethylbutanoyl)piperidin-4-yl)-1H-pyrrolo[2,3-b]pyridin-5-yl)-4-(methylthio)benzamide]	3.2	12.7
